This is an account of results in patent US10975119B2, “Selective cysteine protease inhibitors and uses thereof” (Genesis Technologies Limited, priority 2011, dated 2021).

Holding throughout (assay type): biochemical
One assay deals with T1, Caspase-3 (Homo sapiens, UniProt P42574).
T1 construct: mixing the compounds with the respective active caspases; purchased BioVision K153-100
T1 sequence (P42574 29-175 limits assumed): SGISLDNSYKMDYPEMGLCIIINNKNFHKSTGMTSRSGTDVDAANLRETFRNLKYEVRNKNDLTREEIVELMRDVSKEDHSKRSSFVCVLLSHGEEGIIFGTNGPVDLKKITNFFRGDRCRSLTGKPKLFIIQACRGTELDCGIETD
T1 sequence (P42574 176-277 limits assumed): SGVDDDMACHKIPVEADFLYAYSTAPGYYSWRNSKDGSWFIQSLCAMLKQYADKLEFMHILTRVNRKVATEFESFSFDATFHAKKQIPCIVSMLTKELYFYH
As to the kind of experiment: Caspase-3 inhibitor screening assay (BioVision kit, DEVD-AFC). The following applies: for inhibition at 10 µM: read-out: % Inhibition at 10 uM Casp3; for inhibition at 100 µM: read-out: % Inhibition at 100 uM Casp3; for pIC50: read-out: IC50 Casp3. The method, then:
(§1) The efficacy of an array of compounds as an inhibitor of the activity of Caspases 1 through 10 were assessed by using the respective Caspase Inhibitor Drug Screening Kits (Caspase-1 Catalog #: K151-100, Caspase-2 Catalog #: K152-100, Caspase-3 Catalog #: K153-100, Caspase-4 Catalog #: K154-100, Caspase-5 Catalog #: K155-100, Caspase-6 Catalog #: K156-100, Caspase-7 Catalog #: K157-100, Caspase-8 Catalog #: K158-100, Caspase-9 Catalog #: K159-100, Caspase-10 Catalog #: K160-100, BioVision) following the instructions of the manufacturer. […] Active caspases cleaved their respective synthetic substrates to release free AFC, which was then quantified by fluorometry.
(§2) Briefly, the compounds were first tested at 2 concentrations (10 uM and 100 uM final) to determine if there is a hit. […] Each condition was tested in duplicates. […] For some samples, a smaller range of concentrations was tested depending on the % Inhibition results at 10 uM and 100 uM. Results were summarized in Tables 2, 3, and 4 herein after. Table 2 represents the IC50 values (uM) of the test compounds as inhibitors of the activity of the various caspases.
(§3) (*) RFU (no inhibitor control)—RFU (compound at a specific concentration)
(§4) RFU (no inhibitor control)

The next assay concerns the target T2, Caspase-5 (Homo sapiens, UniProt P51878).
T2 construct: mixing the compounds with the respective active caspases; purchased BioVision K155-100
T2 sequence (P51878 137-327 limits assumed): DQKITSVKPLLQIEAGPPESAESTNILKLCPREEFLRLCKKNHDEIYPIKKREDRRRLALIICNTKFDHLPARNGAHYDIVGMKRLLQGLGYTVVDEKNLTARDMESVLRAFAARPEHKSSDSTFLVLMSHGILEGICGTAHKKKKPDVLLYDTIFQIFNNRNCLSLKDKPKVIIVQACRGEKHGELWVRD
T2 sequence (P51878 347-434 limits assumed): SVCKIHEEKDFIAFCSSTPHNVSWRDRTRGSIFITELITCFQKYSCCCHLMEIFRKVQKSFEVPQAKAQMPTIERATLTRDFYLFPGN
The assay is described as follows: Caspase-5 inhibitor screening assay (BioVision kit, WEHD-AFC). The following applies: for inhibition at 10 µM: read-out: % Inhibition at 10 uM Casp5; for inhibition at 100 µM: read-out: % Inhibition at 100 uM Casp5; for pIC50: read-out: IC50 Casp5. Here is the method: as §1, §2, §3, §4

For the next assay, the target named is T3, Caspase-6 (Homo sapiens, UniProt P55212).
T3 construct: mixing the compounds with the respective active caspases; purchased BioVision K156-100
T3 sequence (P55212 24-179 limits assumed): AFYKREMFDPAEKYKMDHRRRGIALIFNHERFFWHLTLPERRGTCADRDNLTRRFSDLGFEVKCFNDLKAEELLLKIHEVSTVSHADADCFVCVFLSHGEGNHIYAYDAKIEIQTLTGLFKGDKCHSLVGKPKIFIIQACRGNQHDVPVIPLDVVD
T3 sequence (P55212 194-293 limits assumed): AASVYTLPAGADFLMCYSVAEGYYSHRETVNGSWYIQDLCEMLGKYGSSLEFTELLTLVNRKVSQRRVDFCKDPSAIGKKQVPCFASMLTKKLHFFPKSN
As to the kind of experiment: Caspase-6 inhibitor screening assay (BioVision kit, VEID-AFC). The following applies: for inhibition at 10 µM: read-out: % Inhibition at 10 uM Casp6; for inhibition at 100 µM: read-out: % Inhibition at 100 uM Casp6; for pIC50: read-out: IC50 Casp6. Here is the method: as §1, §2, §3, §4

The next assay has as its target T4, Caspase-10 (Homo sapiens, UniProt Q92851).
T4 construct: mixing the compounds with the respective active caspases; purchased BioVision K160-100
T4 sequence (Q92851 220-415 limits assumed): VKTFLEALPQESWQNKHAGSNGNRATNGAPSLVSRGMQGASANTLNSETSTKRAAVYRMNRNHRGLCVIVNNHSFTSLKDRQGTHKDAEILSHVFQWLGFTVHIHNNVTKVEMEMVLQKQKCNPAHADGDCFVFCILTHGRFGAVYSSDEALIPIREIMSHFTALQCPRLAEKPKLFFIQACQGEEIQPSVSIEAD
T4 sequence (Q92851 416-521 limits assumed): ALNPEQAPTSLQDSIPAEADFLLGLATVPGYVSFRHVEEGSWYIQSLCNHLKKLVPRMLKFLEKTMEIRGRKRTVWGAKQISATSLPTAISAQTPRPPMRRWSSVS
The assay is described as follows: Caspase-10 inhibitor screening assay (BioVision kit, AEVD-AFC). The following applies: for inhibition at 10 µM: read-out: % Inhibition at 10 uM Casp10; for inhibition at 100 µM: read-out: % Inhibition at 100 uM Casp10. Here is the method: as §1, §2, §3, §4

Each structure is given as a SMILES string. pIC50: −log10 of the molar value. Where a name gives a salt, the structure may show the parent alone. Read-outs that look alike come from different tables or passages of the source.

Consider `CCOC(=O)/C=C/[C@@H](N)CC(=O)O` [Compound 44, Asp ethyl vinyl ester tosyl salt], for which the inhibition – broadly, the change of the read-out against control, counted positive when it falls – at 10 µM at Caspase-3 was found to be 0%; on Caspase-5, 0%; at Caspase-6 it was 0%; at Caspase-10 it was 4%. Besides, the inhibition at 100 µM at Caspase-3 turned out to be 0%; at Caspase-5, 0%; on Caspase-6, 0%; on Caspase-10 (100 uM) it was 15%. Also, the pIC50 on Caspase-3, at Caspase-5, on Caspase-6 and at Caspase-10 (read-out: IC50 Casp10) was less than 4.00 in each case.

Consider `CCOC(=O)/C=C/[C@H](CC(=O)O)NC(=O)[C@@H](NC(=O)[C@H](CCC(=O)O)NC(=O)[C@@H](NC(=O)OCc1ccccc1)C(C)C)c1ccccc1` [Compound 126, Z-Val-Glu-Phg-Asp-Ethyl Vinyl ester], for which the pIC50 (commonly the negative decadic logarithm of the IC50, by convention in mol/L) on Caspase-3 was 5.56; at Caspase-5, 5.07; on Caspase-6, 6.32; on Caspase-10 (read-out: potency (IC50) against caspase-10), 8.70.

As to `CC(C)[C@H](NC(=O)OCc1ccccc1)C(=O)N[C@H](/C=C/S(C)(=O)=O)CC(=O)O` [Compound 3, Z-Val-Asp methyl vinyl sulfone], the inhibition at 10 µM is 0% on Caspase-3, 0% at Caspase-5, 0% on Caspase-6 and 15% on Caspase-10. The inhibition at 100 µM at Caspase-3 was 5%; on Caspase-5, 0%; at Caspase-6 it was 0%; at Caspase-10 (100 uM) it was 50%. The pIC50 at Caspase-3, at Caspase-5, on Caspase-6 and at Caspase-10 (read-out: IC50 Casp10) was less than 4.00 each time.

Take `CC(C)(C)[C@@H](NC(=O)[C@H](CC(=O)O)NC(=O)OCc1ccccc1)C(=O)N1CC[C@@H]1C(=O)N[C@H](/C=C/S(C)(=O)=O)CC(=O)O` [Compound 32, Z-Asp-t-Leu-(Azetidine-2-carbonyl)-Asp-methyl vinyl sulfone]: the inhibition at 10 µM on Caspase-3 is 96%; at Caspase-5, 23%; at Caspase-6 it was 0%; at Caspase-10 it was 97%. The inhibition at 100 µM at Caspase-3 worked out at 100%; on Caspase-5 it was 77%; on Caspase-6, 1%; on Caspase-10 (100 uM), 100%. Also, the pIC50 is 6.55 on Caspase-3, 4.45 at Caspase-5, less than 4.00 on Caspase-6 and 6.38 on Caspase-10 (read-out: IC50 Casp10). Besides, on Caspase-3 (replacement of Pro at P2 of compound 26), the “potency against caspase-3 relative to compound 26, in words” value was “did not affect the potency against caspase-3”.

Turning to `CC(C)(C)[C@H](NC(=O)c1ccc2ccccc2n1)C(=O)N1CC[C@@H]1C(=O)N[C@H](/C=C/S(C)(=O)=O)CC(=O)O` [Compound 20, 2-Quinoline carbonyl-t-Leu-(Azetidine-2-carbonyl)-Asp methyl vinyl sulfone], the inhibition at 10 µM on Caspase-3 was found to be 1%; on Caspase-5 it was 55%; on Caspase-6, 0%; at Caspase-10, 42%. In addition, the inhibition at 100 µM is 5% on Caspase-3, 96% on Caspase-5, 0% on Caspase-6 and 93% at Caspase-10 (100 uM). For the same compound, the pIC50 was less than 4.00 on Caspase-3, 5.08 at Caspase-5, less than 4.00 at Caspase-6 and 4.90 at Caspase-10 (read-out: IC50 Casp10).

Turning to `CC(C)[C@H](NC(=O)[C@H](Cc1cn(C)c2ccccc12)NC(=O)[C@H](CC(=O)O)NC(=O)OCc1ccccc1)C(=O)N[C@H](/C=C/S(C)(=O)=O)CC(=O)O` [Compound 36, Z-Asp-Trp(N-Me)-Val-Asp-methyl vinyl sulfone], the inhibition at 10 µM at Caspase-3 was found to be 98%; on Caspase-5 it was 14%; on Caspase-6, 0%; on Caspase-10, 31%. The inhibition at 100 µM on Caspase-3 was determined as 100%; on Caspase-5, 50%; on Caspase-6, 19%; on Caspase-10 (100 uM), 98%. Further, the pIC50 at Caspase-3 was 7.05; on Caspase-5, 4.59; on Caspase-6 it was less than 4.00; at Caspase-10 (read-out: IC50 Casp10) it was 4.73.

Turning to `CS(=O)(=O)/C=C/[C@H](CC(=O)O)NC(=O)C1CCCN1C(=O)[C@@H](NC(=O)[C@H](CC(=O)O)NC(=O)OCc1ccccc1)C1CC1` (stereo in doubt) [Compound 28, Z-Asp-Cyclopropylglycine-Pro-Asp-methyl vinyl sulfone], the inhibition at 10 µM at Caspase-3 is 91%; on Caspase-5, 14%; at Caspase-6, 2%; on Caspase-10, 82%. Moreover, the inhibition at 100 µM on Caspase-3 came to 99%; at Caspase-5 it was 69%; at Caspase-6, 4%; on Caspase-10 (100 uM), 99%. Also, the pIC50 at Caspase-3 was 6.11; at Caspase-5 it was 4.34; on Caspase-6, less than 4.00; at Caspase-10 (read-out: IC50 Casp10) it was 5.61. The “change of potency against caspase-3 relative to compound 26” value on Caspase-3 (replacement of t-Leu at P3 of compound 26) was found to be 7 fold.

`CC(C)[C@H](NC(=O)OCc1ccccc1)C(=O)N[C@H](/C=C(\Cl)S(C)(=O)=O)CC(=O)O` [Compound 2, Cbz-Val-Asp achlorovinyl methyl vinyl sulfone]: the inhibition at 10 µM on Caspase-3 was determined as 1%; on Caspase-5 it was 10%; on Caspase-6 it was 1%; at Caspase-10 it was 0%. Besides, the inhibition at 100 µM on Caspase-3 came out at 39%; on Caspase-5 it was 12%; at Caspase-6 it was 19%; on Caspase-10 (100 uM), 48%. Also, the pIC50 on Caspase-3, at Caspase-5, on Caspase-6 and on Caspase-10 (read-out: IC50 Casp10) was less than 4.00 throughout. Moreover, the % Inhibition (usually how much of the control response was suppressed) at 100 uM Casp10 at Caspase-10 (100 uM) amounted to 31%.

Consider `CC(C)[C@H](NC(=O)[C@@H](NC(=O)[C@H](CC(=O)O)NC(=O)OCc1ccccc1)c1ccccc1)C(=O)N[C@H](/C=C/S(C)(=O)=O)CCC(=O)O` [Compound 84, Z-Asp-Phg-Val-Glu methyl vinyl sulfone], for which the inhibition at 10 µM at Caspase-3 came out at 39%; at Caspase-5, 0%; at Caspase-6 it was 0%; at Caspase-10 it was 2%. In addition, the inhibition at 100 µM on Caspase-3 came to 88%; at Caspase-5 it was 0%; at Caspase-6, 5%; on Caspase-10 (100 uM) it was 0%. Also, the pIC50 on Caspase-3 was 4.82; on Caspase-5 it was less than 4.00; on Caspase-6, less than 4.00; at Caspase-10 (read-out: IC50 Casp10) it was less than 4.00.
